Results from patent US20060121449A1, “Method for selection of compounds which inhibit clonal cell growth and use thereof” (priority 2002, published 2006).
“Also recorded” adds a separate entry of the source. Like-named read-outs stand apart in the source and are kept apart here.

Experiments:
[1] = system: polyoma virus transformed BHK21/c13 cells, clone S100T1; test: Clonal test: clonal growth of S100T1 cells in soft agar (Exp 2, 4, 6, 15, 16); format: cell-based, hamster; details: for Growth, results after 3 days / Concentration inhibiting (stopping) clonal growth: Exp 2; for Growth, results after 3 days: 400000 S100T1 cells, 1.5% agarose; for Concentration inhibiting (stopping) clonal growth: S100T1, 1.5% agarose, 3 days; for Clonal growth, result day 7: Exp 4, 3 μM, 120000 S100T1 cells, 1.1% agarose; for Significance / Growth: 4-OH—OPB No 11; for Clonal inhibition: S100T1
Ehrlich ascites tumour = details: for Rescue of mice from transplanted Ehrlich tumour: suboptimal (moderate) dose alone, started the day after transplantation
Procedure: Tumour cells harvested from ascitic mouse were mainly solitary.
The experiment describes transplantation of the malignant mouse Ehrlich ascites tumour to two adult male mice (NMRI/Bom). Each of them received 100000 cells intraperitonally. One mouse was treated two times a week with 4-OH-OPB intraperitonally.
Cells were injected 90 minutes after the addition of 4-OH-OPB to the suspension. The control received the same cell suspension without 4-OH-OPB.
At the same time, dilutions of 4-OH-OPB were injected intraperitonally to the transplanted mice in order to find the smallest active dose.
The cells from ascites in the untreated control mouse was frozen on serum with 10% DMSO. The cells were thawed in water of 37° C., diluted in serum, and pelleted by low speed centrifugation after the addition of 2 ml FBS, to remove DMSO.
Each animal received such cells suspended in portions of 1 ml in RPMI (pH˜6.9).
The frozen and thawed Ehrlich ascites cells are diluted in a volume of 1 ml RPMI (pH˜6.9) for each animal. No calf serum was added to the medium to avoid immunisation of the mice.
Cell number: 90000 tumour cells in 0.7 ml RPMI were injected intraperitonally to each animal.
The total cell number in the ampoule was 7.5 million cells. The cells were thawed, and 2 ml FBS was added before low speed centrifugation. […] Than separate vessels were prepared for each animal. The cell tube for animal number 3 received Colchicine as indicated in the table on day 0 one hour before the cells were injected.
After mixing the same volume was transferred from this tube to the last tube.
The content of the last two tubes was injected intraperitonally to each of the mice number 1 and 2 respectively.

[2] = Exp 7, 1.62 μl 20 mM i.p. two times a week, 45.5 at day 0
[3] = Exp 8 mouse 1: 1.26 μl 20 mM i.p. from day 0 (42 μM i.p.)
[4] = Exp 8 mouse 2: 0.42 μl 20 mM i.p. from day 0 (14 μM i.p.)
[5] = Exp 8 mouse 3: 0.14 μl 20 mM i.p. from day 0 (4.7 μM i.p.)
[6] = Exp 8 mouse 4: 0.047 μl 20 mM i.p. from day 0 (1.6 μM i.p.)
[7] = Exp 8 mouse 6: 1.13 μl 20 mM i.p., first injection 24 h after tumour (37.7 μM i.p.)
[8] = Exp 8 mouse 7: 1.09 μl 20 mM i.p., first injection 3 days after tumour
[9] = Exp 8 mouse 7: 1.09 μl 20 mM i.p., first injection 3 days after tumour (36.3 μM i.p.)
[10] = Exp 8 mouse 7: 1.09 μl 20 mM i.p., first injection 3 days after tumour (36.3 μM i.p.), listed as 4-OH—OPB

CCCCC1(O)C(=O)N(c2ccccc2)N(c2ccc(O)cc2)C1=O (stereo not drawn) [4-OH-OPB, 4-butyl-4-hydroxy-2(p-hydroxyphenyl)-1-phenyl-3,5-pyrazolidinedione]
Growth, results after 3 days ([1]; 500 nM): inhibited | Growth, results after 3 days ([1]; 1000 nM): inhibited | Growth, results after 3 days ([1]; 1500 nM): inhibited | Growth, results after 3 days ([1]; 2000 nM): inhibited | Growth, results after 3 days ([1]; 3000 nM): inhibited | Concentration inhibiting (stopping) clonal growth [1]: ≥ 500 nM | Concentration inhibiting (stopping) clonal growth ([1]; listed as 4-OH—OPB): Even 500 nM stopped clonal growth | Clonal growth, result day 7 [1]: no growth was observed | Clonal growth, result day 7 ([1]; listed as 4-OH—OPB): Single cells only; also recorded: Completely stopped clonal growth in | Susceptibility after single cells had formed small clones (colonies) ([1]; Exp 6): no longer susceptible | Concentration giving good clonal inhibition ([1]; Exp 6, S100T1, 120000 cells, treatment immediately after seeding): above 1 μM | Growth inhibition at 30 μM when treatment delayed 24 hours ([1]; Exp 6, S100T1, small colonies already formed): small growth inhibition; also recorded: some inhibition of growth | Susceptibility after single cells had formed small clones (colonies) ([1]; Exp 6, listed as 4-OH—OPB): they were not susceptible any more. | Effect on clonal growth at 2 and 20 μM ([1]; Exp 15, 32000 S100T1 cells/well): inhibiting clonal growth | Control compared with the other compounds ([1]; Exp 16): clearly better than any other | Significance ([1]; Exp 16 day 14, 0.67 μM): yes | Growth ([1]; Exp 16 day 14, 0.67 μM in wells): − | Significance ([1]; Exp 16 day 14, 6.7 μM): yes | Growth ([1]; Exp 16 day 14, 6.7 μM in wells): − | Significance ([1]; Exp 16 day 21, 0.67 μM): yes | Growth ([1]; Exp 16 day 21, 0.67 μM in wells): − | Significance ([1]; Exp 16 day 21, 6.7 μM): yes | Growth ([1]; Exp 16 day 21, 6.7 μM in wells): − | Clonal inhibition ([1]; 0.3 μM added after 24 hours, read after 48 hours): 0 | Clonal inhibition ([1]; 0.3 μM added immediately, read after 24 hours): 0 | Clonal inhibition ([1]; 0.3 μM added immediately, read after 48 hours): 0 | Clonal inhibition ([1]; 1 μM added after 24 hours, read after 48 hours): 0 | Clonal inhibition ([1]; 1 μM added immediately, read after 24 hours): + | Clonal inhibition ([1]; 1 μM added immediately, read after 48 hours): 0 | Clonal inhibition ([1]; 3 μM added after 24 hours, read after 48 hours): 0 | Clonal inhibition ([1]; 3 μM added immediately, read after 24 hours): ++ | Clonal inhibition ([1]; 3 μM added immediately, read after 48 hours): +− | Clonal inhibition ([1]; 10 μM added after 24 hours, read after 48 hours): 0 | Clonal inhibition ([1]; 10 μM added immediately, read after 24 hours): +++ | Clonal inhibition ([1]; 10 μM added immediately, read after 48 hours): + | Clonal inhibition ([1]; 30 μM added after 24 hours, read after 48 hours): + | Clonal inhibition ([1]; 30 μM added immediately, read after 48 hours): +++ | Anti-clonal effect, summary of Exp 16 ([1]; S100T1 in soft agar): 4-OH—OPB inhibited clones without escaping colonies. | Inhibition of clonal growth at 300 nM ([1]; other/earlier experiments): no inhibition | Weight of treated mouse, day 14 (Ehrlich ascites tumour; [2]): 42.6 g | Weight of treated mouse, day 18 (Ehrlich ascites tumour; [2]): 44.3 g | Tumour findings in treated mouse after 19 days (Ehrlich ascites tumour; Exp 7, 1.62 μl 20 mM i.p. two times a week, 100000 Ehrlich cells i.p.): No tumour was detected; also recorded: completely normal without any palpable tumour or signs of ascites or anaemia; also recorded: no pathological signs; also recorded: no tumour or ascites observable | Ascites (Ehrlich ascites tumour; Exp 7 treated animal, day 19): 0 grams | Fibrinous material under diaphragm (Ehrlich ascites tumour; Exp 7 treated animal, day 19): 0 grams | Size of organs: Hart (Ehrlich ascites tumour; Exp 7 treated animal, day 19): 0.20 grams | Size of organs: Kidneys (Ehrlich ascites tumour; Exp 7 treated animal, day 19): 0.57 grams | Size of organs: Liver (Ehrlich ascites tumour; Exp 7 treated animal, day 19): 2.38 grams | Size of organs: Lungs (Ehrlich ascites tumour; Exp 7 treated animal, day 19): 0.3 grams | Size of organs: Omentum (Ehrlich ascites tumour; Exp 7 treated animal, day 19): 2.36 grams | Size of organs: Spleen (Ehrlich ascites tumour; Exp 7 treated animal, day 19): 0.184 grams | Tumour in groin (Ehrlich ascites tumour; Exp 7 treated animal, day 19): 0 grams | Dose that did not cure when begun the next day or 3 days after transplantation, relative to minimum curative dose (Ehrlich ascites tumour; Exp 8): about 9 times | Smallest effective dose, in extracellular fluid (Ehrlich ascites tumour; Exp 8): 0.37 µM | Start of treatment needed for complete rescue (Ehrlich ascites tumour; Exp 8): The treatment had to start immediately | Outcome when therapy started 24 hours after transplantation or later (Ehrlich ascites tumour; Exp 8, doses in abdomen of 36-38 μM): development of ascites or ascites with solid tumour in addition | Smallest effective (inhibiting) concentration in the peritoneum (Ehrlich ascites tumour; Exp 8, injected together with the cells and then twice a week): dose was 4.8 μM. | Day 15 status (Ehrlich ascites tumour; [3]): healthy | Day 15 weight (Ehrlich ascites tumour; [3]): 33.9 gram | Day 15 weight/initial weight (Ehrlich ascites tumour; [3]): 0.96 | Result (tumour growth) (Ehrlich ascites tumour; [3]): No tumour | Section day 17 (Ehrlich ascites tumour; [3]): No pathology found, neither ascites nor solid tumours | Section day 17 (Ehrlich ascites tumour; Exp 8 mouse 1: 1.26 μl 20 mM i.p. from day 0 (42 μM i.p.), listed as 4-OH—OPB): healthy, no tumour | Day 15 status (Ehrlich ascites tumour; [4]): healthy | Day 15 weight (Ehrlich ascites tumour; [4]): 38.7 gram | Day 15 weight/initial weight (Ehrlich ascites tumour; [4]): 0.97 | Section day 17 (Ehrlich ascites tumour; [4]): No pathology found, neither ascites nor solid tumours | Section day 17 (Ehrlich ascites tumour; Exp 8 mouse 2: 0.42 μl 20 mM i.p. from day 0 (14 μM i.p.), listed as 4-OH—OPB): healthy, no tumour | Day 15 status (Ehrlich ascites tumour; [5]): healthy | Day 15 weight (Ehrlich ascites tumour; [5]): 29.3 gram | Day 15 weight/initial weight (Ehrlich ascites tumour; [5]): 1.1 | Section day 17 (Ehrlich ascites tumour; [5]): No pathology was found, neither ascites nor solid tumours | Section day 17 (Ehrlich ascites tumour; Exp 8 mouse 3: 0.14 μl 20 mM i.p. from day 0 (4.7 μM i.p.), listed as 4-OH—OPB): healthy, no tumour | Ascites relative to control (Ehrlich ascites tumour; [6]): Ascites (0.66 of contr.) + solid | Day 15 status (Ehrlich ascites tumour; [6]): Ascites | Day 15 weight (Ehrlich ascites tumour; [6]): 37.4 gram | Day 15 weight/initial weight (Ehrlich ascites tumour; [6]): 1.33 | Result (tumour growth) (Ehrlich ascites tumour; [6]): Lens-sized tumour at injection site in left abdominal wall | Section day 17: ascites (Ehrlich ascites tumour; Exp 8 mouse 4: 0.047 μl 20 mM i.p. from day 0 (1.6 μM i.p.), control 6.8 ml): 4.5 mL | Section day 17: ascites (Ehrlich ascites tumour; Exp 8 mouse 4: 0.047 μl 20 mM i.p. from day 0 (1.6 μM i.p.), control 6.8 ml, listed as 4-OH—OPB): 4.5 ml ascites | Result (tumour growth) (Ehrlich ascites tumour; Exp 8 mouse 4: 0.047 μl 20 mM i.p. from day 0 (1.6 μM i.p.), listed as 4-OH—OPB): Ascites (0.66 of contr.) + solid | Ascites relative to control (Ehrlich ascites tumour; [7]): Ascites (0.47 of contr.) + solid | Day 15 status (Ehrlich ascites tumour; [7]): Healthy | Day 15 weight (Ehrlich ascites tumour; [7]): 34.5 gram | Day 15 weight/initial weight (Ehrlich ascites tumour; [7]): 1.09 | Result (tumour growth) (Ehrlich ascites tumour; [7]): At injection site circular branched tumour | Section day 17: ascites (Ehrlich ascites tumour; Exp 8 mouse 6: 1.13 μl 20 mM i.p., first injection 24 h after tumour (37.7 μM i.p.), control 6.8 ml): 3.15 mL | Section day 17: ascites (Ehrlich ascites tumour; Exp 8 mouse 6: 1.13 μl 20 mM i.p., first injection 24 h after tumour (37.7 μM i.p.), control 6.8 ml, listed as 4-OH—OPB): 3.2 ml ascites, inj. site | Result (tumour growth) (Ehrlich ascites tumour; Exp 8 mouse 6: 1.13 μl 20 mM i.p., first injection 24 h after tumour (37.7 μM i.p.), listed as 4-OH—OPB): Ascites (0.47 of contr.) + solid | Tumour size, Day 8 (Ehrlich ascites tumour; [8]): Tumour = grain | Tumour size, Day 10 (Ehrlich ascites tumour; [8]): Tumour > grain | Ascites relative to control (Ehrlich ascites tumour; [9]): 0.00022 % of contr. | Day 15 status (Ehrlich ascites tumour; [9]): lens-sized | Day 15 weight (Ehrlich ascites tumour; [9]): 30.5 gram | Day 15 weight/initial weight (Ehrlich ascites tumour; [9]): 1.00 | Section day 17: ascites (Ehrlich ascites tumour; [9]): 0.015 mL | Section day 17: solid tumour (Ehrlich ascites tumour; [9]): pea-sized | Result (tumour growth) (Ehrlich ascites tumour; [10]): Ascites; also recorded: contr.) + solid | Section day 17: ascites (Ehrlich ascites tumour; [10]): site, 15 μl ascites, | Section day 17: solid tumour (Ehrlich ascites tumour; [10]): Pea-size tumour at inj. | tumour in abdominal wall, findings on section (Ehrlich ascites tumour; Exp 18, at killing, control 2 × 3 mm tumour): Lens sized | ascites with Ehrlich cells, findings on section (Ehrlich ascites tumour; Exp 18, at killing, control 4 ml): 0.1 mL | day 14 status (Ehrlich ascites tumour; Exp 18, day 14 after ip transplantation, mouse 1 killed, mice 2 and 3 marked '?'): Ascites | weight gain in % (Ehrlich ascites tumour; Exp 18, one mouse each, ip: mouse 1 4-OH—OPB from day 1, mouse 2 Etoposide + 4-OH—OPB from day 1, mouse 3 Colchicine from day 0, control mouse 42.4): 32.3% | Rescue of mice from transplanted Ehrlich tumour (Ehrlich ascites tumour; Exp 18): missing cure | Rescue of mice from transplanted Ehrlich tumour (Ehrlich ascites tumour; Exp 18, listed as 4-OH—OPB): not rescued. Colchicine alone in high dose did
